According to patent US12023335B2, “Method for treating pancreatic cancer” (PTC THERAPEUTICS, INC., priority 2018, dated 2024):
“Also recorded” adds a separate entry of the source.

Experiments:
[1] = test system: PDA tumors in KPC mice; experiment: KPC intervention/survival study; assay type: in vivo; settings: KPC mice (FIGS. 7a, 7b)
Description: Tumor formation in KPC mice was monitored by weekly palpation until the detection of a mass. Upon positive palpation, the mass was monitored by twice weekly ultrasound until the tumor reached an enrollable size of 4-7 mm average diameter. Once enrollable, KPC mice were randomly enrolled into a treatment arm of the intervention study. Mice were treated with vehicle, Compound 1 (17 mg/kg, PO, b.i.w.), gemcitabine alone (100 mg/kg, IP, b.i.w.), or Compound 1+gemcitabine. Mice receiving Compound 1 also received gemcitabine vehicle (saline, IP, b.i.w.) at a volume (μL) of 50× body weight (g). Mice receiving gemcitabine also received Compound 1 vehicle (0.5% hydroxypropylmethylcellulose with 0.1% Tween80 (w/v), PO, b.i.w.) at a volume (μL) of 5.7× body weight (g). All drug and vehicle combinations were administered simultaneously.
Tumor ultrasonography and volume quantification were carried out as described in Sastra S A, Olive K P, Quantification of murine pancreatic tumors by high-resolution ultrasound, Methods Mol Biol 2013; 980:249-66. […]
To prepare samples for immunohistochemistry, tissues were first fixed overnight in 10% phosphate-buffered formalin and then stored in 70% ethanol for long-term storage. […] Next, antigen retrieval was carried out in an experimentally determined, antibody-specific antigen retrieval buffer (usually 10 mM citrate, pH 6.0 or 10 mM Tris, pH 10.0). […]

[2] = test system: tubulin; experiment: Analysis of free tubulin content in Aspc1 cells (fractionation, western blot); assay type: cell-based, human; settings: 3.0 μM, 2 hours, relative to vehicle, COL and TAX (FIGS. 11a, 11b)
Description: Western blotting was carried out on lysates isolated from treated cells. Cells were lysed using RIPA buffer (50 mM Tris, pH 7.4, 150 mM NaCl, 1% Nonidet P-40, 0.1% SDS, 0.5% deoxycholate) supplemented with cOmplete™ EDTA-free Protease Inhibitor Cocktail (Sigma, 11836170001) and Halt™ Phosphatase Inhibitor Cocktail (ThermoFisher, 78420). Lysates were quantified using the Pierce BCA Protein Assay Kit (ThermoFisher, 23227), diluted in SDS sample buffer, resolved by SDS-PAGE (15-30 μg/sample), and transferred onto PVDF membranes. Membranes were blocked with 5% w/v nonfat dry milk in TBS-T (0.1% Tween20) and primary antibodies were incubated overnight at 4° C., diluted in 5% BSA in TBS-T at the indicated concentrations. HRP-conjugated secondary antibodies were incubated in blocking buffer for 1 hour at room temperature before detection using Super Digital-ECL™ substrate solution (Kindle Biosciences, R1002). (FIG. 5b, FIG. 10a and FIG. 11b)
Free heterodimer tubulin was separated from tubulin incorporated into microtubules according to manufacturer's recommendations using the Microtubule/Tubulin In Vivo Assay Biochem Kit (Cytoskeleton, #BK038). Cells were seeded in 12-well plates such that ˜16 hours later they would be approximately 50-60% confluent. […]

[3] = target: T1, P-glycoprotein (Homo sapiens, UniProt P08183); experiment: P-glycoprotein substrate activity experiment (CC50 ratio MDCK-P-gp vs MDCK-WT); assay type: in vitro ADME; settings: 72 hours, CellTiter-Glo (FIG. 4b)
T1 construct: host or cells: MDCKII-mdr1 (canine kidney MDCKII cells; MDCKII-wt as control)
Description: MDCKII-mdr1 and MDCKII-wt cells were purchased from the Netherlands Cancer Institute, NKI-AVL. The cells were cultivated in Dulbecco's modified essential medium (DMEM), supplemented with 10% FBS and 1% Penn-Strep, and used between passage 3-9. Cells were seeded at a density of 3×10^3 cells/well in 96-well tissue culture treated plates. After 4 hours to allow cells to attach, cells were treated with test compound in the presence or absence of the P-glycoprotein inhibitor Valspodar. The plates were incubated at 37° C., 5% CO2 for 72 hours and ATP was measured vialuminescence using CellTiter-Glo® reagent (Promega). (FIG. 4b)

T1 sequence (P08183 whole entry): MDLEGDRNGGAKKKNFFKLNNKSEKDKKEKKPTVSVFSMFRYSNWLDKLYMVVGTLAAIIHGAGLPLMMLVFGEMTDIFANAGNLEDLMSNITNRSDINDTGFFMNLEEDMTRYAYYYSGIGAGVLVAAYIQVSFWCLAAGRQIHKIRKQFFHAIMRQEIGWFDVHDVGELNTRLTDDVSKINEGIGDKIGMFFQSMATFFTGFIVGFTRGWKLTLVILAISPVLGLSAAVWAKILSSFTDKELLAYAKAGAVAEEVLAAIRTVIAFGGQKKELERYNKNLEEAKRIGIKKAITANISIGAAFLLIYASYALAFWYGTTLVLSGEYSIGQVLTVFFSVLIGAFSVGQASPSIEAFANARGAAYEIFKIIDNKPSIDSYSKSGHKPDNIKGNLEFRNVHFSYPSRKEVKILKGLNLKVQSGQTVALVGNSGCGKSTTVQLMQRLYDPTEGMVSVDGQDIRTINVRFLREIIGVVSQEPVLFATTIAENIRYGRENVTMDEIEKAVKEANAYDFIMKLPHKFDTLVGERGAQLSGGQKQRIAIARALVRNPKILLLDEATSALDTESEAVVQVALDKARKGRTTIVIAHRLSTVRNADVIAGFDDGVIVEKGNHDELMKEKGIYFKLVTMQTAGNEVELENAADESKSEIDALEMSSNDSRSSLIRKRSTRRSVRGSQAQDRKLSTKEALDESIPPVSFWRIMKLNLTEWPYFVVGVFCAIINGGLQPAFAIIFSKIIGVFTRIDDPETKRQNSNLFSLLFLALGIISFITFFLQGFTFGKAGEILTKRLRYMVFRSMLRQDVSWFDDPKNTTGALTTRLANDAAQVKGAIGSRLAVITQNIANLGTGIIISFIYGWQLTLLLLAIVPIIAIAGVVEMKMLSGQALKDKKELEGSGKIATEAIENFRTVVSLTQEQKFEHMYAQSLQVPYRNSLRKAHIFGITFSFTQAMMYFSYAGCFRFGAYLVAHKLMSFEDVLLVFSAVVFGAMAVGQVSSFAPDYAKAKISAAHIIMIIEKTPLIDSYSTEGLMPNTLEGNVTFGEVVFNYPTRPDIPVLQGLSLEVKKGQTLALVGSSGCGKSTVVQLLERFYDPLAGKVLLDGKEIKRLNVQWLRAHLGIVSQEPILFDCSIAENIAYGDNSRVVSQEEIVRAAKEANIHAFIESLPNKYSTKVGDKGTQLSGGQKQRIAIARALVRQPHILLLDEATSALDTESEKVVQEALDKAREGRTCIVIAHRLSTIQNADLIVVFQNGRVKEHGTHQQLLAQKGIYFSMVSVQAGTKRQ

Cc1nc2ccc(F)cc2n1-c1nc(N)c(F)c(Nc2ccc(C(F)(F)F)cc2)n1 [Compound 1, 5-fluoro-2-(6-fluoro-2-methyl-1H-benzo[d]imidazol-1-yl)-N4-[4-(trifluoromethyl)phenyl]pyrimidine-4,6-diamine]
tumor volumes by high resolution 3D ultrasound [1]: time-dependent decrease in KPC mouse model PDA tumor volume
free tubulin vs microtubules in cell lysate fractions [2]: significant fold-change increase in prevention of tubulin formation
PGP substrate activity (ratio of CC50 values MDCK-P-gp vs MDCK-WT) [3]: lack of P-glycoprotein (PGP) substrate activity; also recorded: do not function as a PGP substrate
